Reference: the supplement of paper PMC10307832

How the values were obtained:
Test in all cases: relative viability (nuclei count vs DMSO), 5 days (fraction); higher = more cells survive
AT-7519 + Pemetrexed = compound: O=C(NC1CCNCC1)c1n[nH]cc1NC(=O)c1c(Cl)cccc1Cl [AT-7519] + Nc1nc2[nH]cc(CCc3ccc(C(=O)N[C@@H](CCC(=O)O)C(=O)O)cc3)c2c(=O)[nH]1 [Pemetrexed] (partner 0.2 µM)
Summary of the method: (§1)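 Lung cancer cell lines in 1536-well plates were dosed by pin tool the day after seeding, either with one drug alone or with a fixed anchor-drug dose plus five library-drug doses (not always all listed) in √10 steps. After 5 days, cells were fixed and their nuclei stained in one step (final 0.05% Triton X-100, 1% formaldehyde, 1 ug/ml Hoechst), then counted on 4× images. Relative viability is the nuclei count in treated wells divided by that in vehicle wells. Values are medians of duplicate plates.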

AT-7519 + Crizotinib = compound: O=C(NC1CCNCC1)c1n[nH]cc1NC(=O)c1c(Cl)cccc1Cl [AT-7519] + C[C@@H](Oc1cc(-c2cnn(C3CCNCC3)c2)cnc1N)c1c(Cl)ccc(F)c1Cl [Crizotinib] (partner 1 µM)
Summary of the method: as §1

[1] = compound: C1=CC2=C(C=C(C(=C2N=C1)O)N=NC3=CC4=C(C=C3)C=C(C=C4)S(=O)(=O)O)S(=O)(=O)O + C[C@]1(O)C[C@@H](c2nc(-c3ccc4ccc(-c5ccccc5)nc4c3)c3c(N)nccn32)C1 [Linsitinib] (partner 1 µM)
Summary of the method: as §1

AT-7519 + Olaparib = compound: O=C(NC1CCNCC1)c1n[nH]cc1NC(=O)c1c(Cl)cccc1Cl [AT-7519] + O=C(c1cc(Cc2n[nH]c(=O)c3ccccc23)ccc1F)N1CCN(C(=O)C2CC2)CC1 [Olaparib] (partner 8 µM)
Summary of the method: as §1

Cell Line	relative viability (AT-7519 + Pemetrexed; first compound 0.01 µM)	relative viability (AT-7519 + Pemetrexed; first compound 0.03162 µM)	relative viability (AT-7519 + Pemetrexed; first compound 0.3162 µM)	relative viability (AT-7519 + Pemetrexed; first compound 1 µM)	relative viability (AT-7519 + Crizotinib; first compound 0.01 µM)	relative viability (AT-7519 + Crizotinib; first compound 0.03162 µM)	relative viability (AT-7519 + Crizotinib; first compound 0.3162 µM)	relative viability (AT-7519 + Crizotinib; first compound 1 µM)	relative viability ([1]; first compound 0.08 µM)	relative viability ([1]; first compound 0.253 µM)	relative viability ([1]; first compound 0.8 µM)	relative viability ([1]; first compound 2.53 µM)	relative viability ([1]; first compound 8 µM)	relative viability (AT-7519 + Olaparib; first compound 0.01 µM)	relative viability (AT-7519 + Olaparib; first compound 0.03162 µM)	relative viability (AT-7519 + Olaparib; first compound 0.3162 µM)	relative viability (AT-7519 + Olaparib; first compound 1 µM)
NCI-H1975	0.304	0.302	0.306	0.181	1.09	0.973	0.877	0.206	1.02	0.913	0.92	0.918	0.908	0.816	0.67	0.641	0.15
CAL-12T	1.23	1.11	0.584	0.147	0.562	0.537	0.201	0.16	0.938	0.753	0.751	0.773	0.889	0.736	0.736	0.539	0.163
HCC-44	0.622	0.696	0.65	0.703	0.773	0.781	0.903	0.778	0.708	0.66	0.664	0.702	0.698	1.08	1.01	0.937	1.02
EKVX	0.423	0.342	0.246	0.463	0.933	0.85	0.699	0.894	1.15	0.956	0.891	1.01	0.927	0.816	0.758	0.809	0.995
NCI-H1651	0.677	0.562	0.556	0.744	0.858	0.846	0.909	0.847	1.01	0.966	1.06	0.922	0.925	0.201	0.172	0.163	0.204
NCI-H1944	0.633	0.593	0.602	0.511	1.18	1.34	0.926	0.862	1.21	1.15	1.24	1.17	1.25	0.383	0.424	0.412	0.337
NCI-H1703	–	–	–	–	0.585	0.59	0.508	0.0921	0.865	–	0.821	0.371	0.959	0.454	0.435	0.388	0.175
Calu-6	–	–	–	–	0.928	0.855	0.677	0.141	1.08	0.976	0.911	0.926	0.969	0.622	0.641	0.688	0.262
EBC-1	–	–	–	–	0.198	0.228	0.191	0.153	1.04	0.878	0.796	0.945	0.915	0.88	0.773	0.664	0.546
SW 1573	0.745	0.833	0.401	0.126	0.817	0.755	0.84	0.368	0.779	0.734	0.816	0.875	0.75	0.463	0.505	0.2	0.0972
A-427	1.06	0.965	1.07	1.01	0.931	0.823	0.964	0.576	1.18	1.07	1.08	1.07	1.11	0.806	0.745	0.713	0.382
NCI-H2347	0.462	0.367	0.398	0.453	0.627	0.706	0.645	0.573	1.01	0.894	0.881	1.03	1.03	0.619	0.506	0.561	0.41
NCI-H1355	1.04	1.03	1.06	0.974	1.1	1.02	1.13	0.943	0.951	0.79	0.839	0.863	0.817	0.687	0.765	0.789	0.68
NCI-H358	0.175	0.172	0.164	0.132	0.544	0.544	0.458	0.0912	0.796	0.682	0.724	0.74	0.336	0.608	0.48	0.36	0.11
PC-3 [JPC-3]	1.05	1.1	1.11	1.47	1.09	0.99	0.962	0.95	0.998	0.93	0.94	0.965	0.97	1.19	1.1	1.09	0.981
NCI-H2228	0.404	0.395	0.313	0.265	0.549	0.379	0.403	0.313	0.653	0.611	0.598	0.634	0.777	0.54	0.602	0.569	0.208
HOP-62	0.359	0.335	0.302	0.328	0.893	0.966	0.675	0.889	0.992	0.893	1.01	1	0.926	0.558	0.248	0.189	0.373
HARA	0.234	0.298	0.25	0.296	1.03	1.1	0.974	0.786	1.01	1.08	0.937	1.06	0.957	0.753	0.478	0.482	0.301
NCI-H838	0.247	0.246	0.281	0.115	0.805	0.826	0.571	0.194	1.17	0.996	0.979	0.975	1.02	0.812	0.766	0.576	0.0987
